Source: US20250356957A1, “EMULATOR OF SUBCUTANEOUS ABSORPTION AND RELEASE” (UNIVERSITY OF KANSAS, priority 2022, published 2025)

Test: ESCAR drug release tests for acetaminophen solution (factor screening)
Assay type: in vitro ADME
Settings: center position injection, 10 mg/mL solution
Method: Acetaminophen solution (10 mg/mL) and the subcutaneous chamber (Version 1; FIG. 2C) were used across different runs. Both the “lymphatic circulation” and “blood circulation” chambers were filled with 75 mL of PBS (pH 7.4), and the subcutaneous chamber was filled with 2.8 mL of HA/PBS solution. At the surrounding areas of the interfaces, a layer of mounting tape was assembled to prevent liquid leakage. Sequentially, the “subcutaneous”/“blood circulation” interface was assembled with a SpectraPor® dialysis membrane (MWCO: 50 kDa), and the “subcutaneous”/“lymphatic circulation” interface was assembled with a SpectraPor® dialysis membrane (MWCO: 300 kDa). All membranes were pre-soaked in DI water for at least 1 h before use. The drug release tests were conducted at 34° C. in a convective oven, with mild magnetic stirring in the “blood circulation” and “lymphatic circulation” chambers. […] A 18-run full factorial experimental design was employed to evaluate three factors, HA concentration (three levels: 2.5, 5, 10 mg/mL), injection volume (three levels: 0.25, 0.5, 1 mL), and injection position/needle tip position to the membrane at the “subcutaneous”/“blood circulation” interface (two levels: 0.2, 0.5 cm). At the pre-set time points, 1.5 mL of aliquots were withdrawn from the “blood circulation” chamber with the replacement of the same volume of PBS. Each run was conducted in triplicate.

release fraction (%) at 8-hr (2.5 mg/mL HA solution): ~60% | release fraction (%) at 8-hr (5 mg/mL HA solution): ~30% | release fraction (%) at 8-hr (10 mg/mL HA solution): ~15% | release fraction (%) at 8-hr (subcutaneous medium PBS): ~80%
Structure (SMILES): CC(=O)Nc1ccc(O)cc1 [acetaminophen, Acetaminophen]
